In article PMC4336331, “Novel Receptor-Derived Cyclopeptides to Treat Heart Failure Caused by Anti-β1-Adrenoceptor Antibodies in a Human-Analogous Rat Model” (PLoS ONE, 2015):
Peptide text beside a SMILES is read from it.

Key:
[1] = tested on: heart rate; test: Bisoprolol titration pre-experiments, heart rate; type: in vivo, Lewis/CrlBR rats
Procedure: In brief, n = 76 two months old Lewis/CrlBR rats were either s.c. immunised with 50 μg β1EC2/GST-FP, or n = 38 rats were control-injected with 0.9% NaCl (t = 0). To maintain high anti-β1EC2-titers, all immunised rats were boosted with β1EC2/GST-FP (or 0.9% NaCl) every month over 20 months as previously described. Application of the different linear or cyclic β1-AR peptides (corresponding to the primary AA-sequence of either the first (β1EC1) or the 2nd extra-cellular β1-AR loop (β1EC2)) or the β1-receptor blocker bisoprolol was initiated either 6 weeks after the 1st immunisation (i.e. 15 days after the 1st boost, prevention-study), or 8.5 months after the 1st immunisation (therapy-study).

[2] = tested on: anti-β1EC2-antibodies; test: Free anti-β1EC2-titers by ELISA, prevention-study; type: in vivo, Lewis/CrlBR rats; settings: 1.0 mg/kg i.v. monthly
Procedure: For treatment groups (a), (b), and (f) in total n = 38 non-immunised rats were injected with 0.9% NaCl and treated in parallel (“negative” controls). Blood was taken at regular intervals; rat-IgG was prepared by caprylic acid precipitation and assayed for reactivity by ELISA or competition-ELISA against linear peptides corresponding to the human β1EC2-sequence (AA199-223)[12], and by immuno-fluorescence microscopy with human embryonic kidney (HEK)293 cells stably expressing 0.4 pmol β1-AR/mg membrane protein (HEKβ1-cells). Specificity of the anti-β1EC2-abs was confirmed by co-localisation experiments using previously characterised N-terminal rabbit anti-β1-abs. Bound antibodies were detected with appropriate species-specific secondary antibodies (Dianova, Hamburg, Germany; anti-rabbit-, or anti-rat-Fab2, conjugated to Cy2 or Cy3). Calibrated rat-IgG (Dianova) served to quantify specific IgG-antibodies.
Fig 2 Study protocol and cardioprotection with cyclic β1EC2-peptides. Flow charts of the (A) prevention- and (E) therapy-study with β1EC2-mimicking peptides in the rat. Numbers given refer to animal-numbers in the respective study-groups. Immunisation with β1EC2/GST-FP (or 0.9% NaCl for controls) was started at t = 0. […] Titers were measured before and 24h after CP-injection. […] For better readability error-bars are not shown in the graph. […]

| SMILES | decrease of heart rate ([1]; oral dose 15 mg/kg/day derived from titration pre-experiments [5/10/15mg]) | heart rate after bisoprolol ([1]; titration pre-experiments [5/10/15mg], 15mg oral, from 236±10 bpm, n = 5, p<0.005) | reduction in free anti-β1EC2-abs vs. initial values ([2]; after 5 injections, ELISA (Fig. 2B)) | anti-β1EC2-titers in % of the initial values ([2]; after 9–10 injections, despite monthly antigen-boosts (Fig. 2B)) |
| --- | --- | --- | --- | --- |
| CC(C)NCC(O)COc1ccc(COCCOC(C)C)cc1 (stereo not shown) [bisoprolol, reference compound] | at least 10% | 205±9 bpm |  |  |
| CC(C)[C@@H]1NC(=O)[C@H](Cc2ccccc2)NC(=O)[C@H](CC(=O)O)NC(=O)[C@H](CS)NC(=O)[C@H](CS)NC(=O)[C@H](CCCCN)NC(=O)[C@@H]2CCCN2C(=O)[C@H](CC(=O)O)NC(=O)[C@H](CC(N)=O)NC(=O)[C@H](Cc2ccc(O)cc2)NC(=O)[C@H](CS)NC(=O)[C@H](CCCNC(=N)N)NC(=O)[C@H](CCCNC(=N)N)NC(=O)[C@H](C)NC(=O)[C@H](CCC(=O)O)NC(=O)[C@H](CC(=O)O)NC(=O)[C@H](CO)NC(=O)[C@H](CCC(=O)O)NC(=O)[C@H](C)NC(=O)[C@H](CCCNC(=N)N)NC(=O)[C@H](C)NC(=O)[C@H](CCC(N)=O)NC(=O)CNC(=O)[C@H](CCCNC(=N)N)NC(=O)[C@H](CC(N)=O)NC(=O)[C@H]([C@@H](C)O)NC1=O [β1EC2-CP] (cyclo(AESDEARRCYNDPKCCDFVTNRGQAR)) |  |  | > 80% | ~10% |
